molecular target: SARS-CoV-2 MPro (Severe acute respiratory syndrome coronavirus 2, UniProt P0DTD1); assay: MPro activity assay (de-quenching of Edans fluorescence on cleavage of a Dabcyl/Edans peptide); type: biochemical; conditions: 60 min pre-incubation, 5 μM substrate

| Structure (SMILES) | IC50 |
| --- | --- |
| Cc1ccc(S(=O)(=O)Nc2nc3cc(Cl)c(Oc4cccc(Cl)c4Cl)cc3[nH]2)cc1 [Cpd 31] | > 25 µM |

same assay, conditions: in-house acquired data, internal screening under standardized conditions (128 compounds)

| Structure (SMILES) | Class (MPro activity class) |
| --- | --- |
| Cc1c(C(=O)Nc2ccccc2)[n+]([O-])c2cc(CN(C)CC=Cc3ccccc3)ccc2[n+]1[O-] [COV19291] | 0 (compounds with IC50 > 20 μM, percentage inhibition <80% at 20 µM or 50 μM, or percentage enzyme inhibition <50% at 10 µM were labelled as INACTIVE) |
| O=S(=O)(C=Cc1ccc2no[n+]([O-])c2c1)c1ccccc1 [COV19497] | 1 (Compounds with IC50 < 10 µM or with a percentage of enzyme inhibition >50% at 10 µM were labelled as ACTIVE) |
| O=S(=O)(C=Cc1ccc2nonc2c1)c1ccccc1 [COV19498] | 0 (compounds with IC50 > 20 μM, percentage inhibition <80% at 20 µM or 50 μM, or percentage enzyme inhibition <50% at 10 µM were labelled as INACTIVE) |
| O=S(=O)(C=Cc1ccc2no[n+]([O-])c2c1)c1ccc(Cl)cc1 [COV19499] | 1 (Compounds with IC50 < 10 µM or with a percentage of enzyme inhibition >50% at 10 µM were labelled as ACTIVE) |
| O=S(=O)(C=Cc1ccc2no[n+]([O-])c2c1)c1ccc(F)cc1 [COV19500] | 1 (Compounds with IC50 < 10 µM or with a percentage of enzyme inhibition >50% at 10 µM were labelled as ACTIVE) |
| [O-][n+]1onc2ccc(C=CSc3ccc(F)cc3)cc21 [COV19501] | 1 (Compounds with IC50 < 10 µM or with a percentage of enzyme inhibition >50% at 10 µM were labelled as ACTIVE) |
| Cc1ccc(S(=O)(=O)Nc2nc3cc(Cl)c(Oc4cccc(Cl)c4Cl)cc3[nH]2)cc1 [Cpd 31] | 0 (compounds with IC50 > 20 μM, percentage inhibition <80% at 20 µM or 50 μM, or percentage enzyme inhibition <50% at 10 µM were labelled as INACTIVE) |
| Nc1cccc(C(=O)Nc2nc3c(s2)CC(NC(=O)c2cc(Br)c(Br)[nH]2)CC3)c1 (stereo not shown) [Cpd 46] | 0 (compounds with IC50 > 20 μM, percentage inhibition <80% at 20 µM or 50 μM, or percentage enzyme inhibition <50% at 10 µM were labelled as INACTIVE) |
| O=C(Nc1nc2c(s1)CC(NC(=O)c1cc(Br)c(Br)[nH]1)CC2)c1c[nH]cn1 (stereo not shown) [Cpd 47] | 0 (compounds with IC50 > 20 μM, percentage inhibition <80% at 20 µM or 50 μM, or percentage enzyme inhibition <50% at 10 µM were labelled as INACTIVE) |
| Nc1nc2c(s1)CC(NC(=O)c1cc3cc(F)ccc3[nH]1)CC2 (stereo not shown) [Cpd 48] | 0 (compounds with IC50 > 20 μM, percentage inhibition <80% at 20 µM or 50 μM, or percentage enzyme inhibition <50% at 10 µM were labelled as INACTIVE) |
| NC1CCc2nc(NC(=O)c3cc(Cl)c(Cl)[nH]3)sc2C1 (stereo not shown) [Cpd 49] | 0 (compounds with IC50 > 20 μM, percentage inhibition <80% at 20 µM or 50 μM, or percentage enzyme inhibition <50% at 10 µM were labelled as INACTIVE) |
| CCOC(=O)C(=O)NC1CCc2nc(NC(=O)c3cc(Cl)c(Cl)[nH]3)sc2C1 (stereo not shown) [Cpd 50] | 0 (compounds with IC50 > 20 μM, percentage inhibition <80% at 20 µM or 50 μM, or percentage enzyme inhibition <50% at 10 µM were labelled as INACTIVE) |
| O=C(O)C(=O)NC1CCc2nc(NC(=O)c3cc(Cl)c(Cl)[nH]3)sc2C1 (stereo not shown) [Cpd 51] | 0 (compounds with IC50 > 20 μM, percentage inhibition <80% at 20 µM or 50 μM, or percentage enzyme inhibition <50% at 10 µM were labelled as INACTIVE) |
| COc1cccc(-n2c(NCCN3CCNCC3)nc3sc4c(c3c2=O)CCCC4)c1 [Cpd 52] | 0 (compounds with IC50 > 20 μM, percentage inhibition <80% at 20 µM or 50 μM, or percentage enzyme inhibition <50% at 10 µM were labelled as INACTIVE) |
| COC(=O)CC(=O)Nc1nc2c(s1)CC(NC(=O)c1[nH]c(C)c(Cl)c1Cl)CC2 (stereo not shown) [Cpd 53] | 0 (compounds with IC50 > 20 μM, percentage inhibition <80% at 20 µM or 50 μM, or percentage enzyme inhibition <50% at 10 µM were labelled as INACTIVE) |
| Cc1[nH]c(C(=O)NC2CCc3nc(NC(=O)CC(=O)O)sc3C2)c(Cl)c1Cl (stereo not shown) [Cpd 54] | 0 (compounds with IC50 > 20 μM, percentage inhibition <80% at 20 µM or 50 μM, or percentage enzyme inhibition <50% at 10 µM were labelled as INACTIVE) |
| CCOC(=O)C(=O)Nc1nc2c(s1)CC(NC(=O)c1cc(Br)c(Br)[nH]1)CC2 (stereo not shown) [Cpd 55] | 0 (compounds with IC50 > 20 μM, percentage inhibition <80% at 20 µM or 50 μM, or percentage enzyme inhibition <50% at 10 µM were labelled as INACTIVE) |
| O=C(O)C(=O)Nc1nc2c(s1)CC(NC(=O)c1cc(Br)c(Br)[nH]1)CC2 (stereo not shown) [Cpd 56] | 0 (compounds with IC50 > 20 μM, percentage inhibition <80% at 20 µM or 50 μM, or percentage enzyme inhibition <50% at 10 µM were labelled as INACTIVE) |
| CCN(CC)c1ccc(-c2ccc(C(=O)OC)cc2)cc1 [Mal1] | 0 (compounds with IC50 > 20 μM, percentage inhibition <80% at 20 µM or 50 μM, or percentage enzyme inhibition <50% at 10 µM were labelled as INACTIVE) |
| COC(=O)c1ccc(-c2ccc(C3C(Oc4ccccc4)C(=O)N3Cc3ccccc3)cc2)cc1 (stereo not shown) [Mal2] | 0 (compounds with IC50 > 20 μM, percentage inhibition <80% at 20 µM or 50 μM, or percentage enzyme inhibition <50% at 10 µM were labelled as INACTIVE) |
| O=C1C(Oc2ccccc2)C(c2ccc(B(O)O)cc2)N1Cc1ccccc1 (stereo not shown) [Mal3] | 0 (compounds with IC50 > 20 μM, percentage inhibition <80% at 20 µM or 50 μM, or percentage enzyme inhibition <50% at 10 µM were labelled as INACTIVE) |
| CC(C)(C)OC(=O)N1CCC(Oc2cc(C(=O)NCC(=O)O)ccc2NC(=O)c2cc(Br)c(Br)[nH]2)CC1 [UL-DBT26] | 0 (compounds with IC50 > 20 μM, percentage inhibition <80% at 20 µM or 50 μM, or percentage enzyme inhibition <50% at 10 µM were labelled as INACTIVE) |
| Cc1[nH]c(C(=O)Nc2ccc(C(=O)O)cc2)c(Cl)c1Cl [UL-NNS 38-1] | 0 (compounds with IC50 > 20 μM, percentage inhibition <80% at 20 µM or 50 μM, or percentage enzyme inhibition <50% at 10 µM were labelled as INACTIVE) |
| Nc1ncc2cc(-c3c(F)cccc3F)c(N)nc2n1 [ZEA107] | 0 (compounds with IC50 > 20 μM, percentage inhibition <80% at 20 µM or 50 μM, or percentage enzyme inhibition <50% at 10 µM were labelled as INACTIVE) |
| Nc1ncc2cc(-c3ccc4c(c3)OCO4)c(N)nc2n1 [ZVR108] | 0 (compounds with IC50 > 20 μM, percentage inhibition <80% at 20 µM or 50 μM, or percentage enzyme inhibition <50% at 10 µM were labelled as INACTIVE) |
| Nc1nc2nc(NCCCN3CCOCC3)ncc2cc1-c1c(Cl)cccc1Cl [ZVR130] | 0 (compounds with IC50 > 20 μM, percentage inhibition <80% at 20 µM or 50 μM, or percentage enzyme inhibition <50% at 10 µM were labelled as INACTIVE) |
| COc1cc(OC)cc(-c2cc3cnc(N)nc3nc2N)c1 [ZVR-100] | 0 (compounds with IC50 > 20 μM, percentage inhibition <80% at 20 µM or 50 μM, or percentage enzyme inhibition <50% at 10 µM were labelled as INACTIVE) |
| Nc1ncc(C(=O)N(Cc2ccccc2)Cc2ccccc2)o1 [ZVR-102] | 0 (compounds with IC50 > 20 μM, percentage inhibition <80% at 20 µM or 50 μM, or percentage enzyme inhibition <50% at 10 µM were labelled as INACTIVE) |
| CCCCN(CCCC)C(=O)c1cnc(N)o1 [ZVR-103] | 0 (compounds with IC50 > 20 μM, percentage inhibition <80% at 20 µM or 50 μM, or percentage enzyme inhibition <50% at 10 µM were labelled as INACTIVE) |

same assay, conditions: read-out: % activity MPro

| Structure (SMILES) | activity at 25 µM |
| --- | --- |
| O=C(O)C(=O)NC1CCc2nc(NC(=O)c3cc(Cl)c(Cl)[nH]3)sc2C1 (stereo not shown) [Cpd 51] | 107 ± 5.7% |

Reference: paper PMC10323144, “Garbage in, garbage out: how reliable training data improved a virtual screening approach against SARS-CoV-2 MPro” (Frontiers in Pharmacology, 2023)
